Assay results from patent US8017656B2, “Organic sulfur compounds and use thereof” (Sumitomo Chemical Company, Limited, priority 2005, dated 2011).
Where two headings read alike, the source gives them in different places.

How the values were obtained:
Assay type in all cases: in vivo
Musca domestica = test: Test Example 2: filter paper/sucrose bait test against housefly imagoes; settings: read-out: rate of dead pests
Procedure: (§1) On the bottom of a polyethylene cup having a diameter of 5.5 cm, a filter paper having the same diameter was laid, and 0.7 ml of the above test solution was added dropwise on the filter paper, followed by putting 30 mg of sucrose on it uniformly as a bait. Ten female Musca domestica imagoes were set free in the polyethylene cup and covered it with a lid. After 24 hours, the number of surviving and dead Musca domestica was examined and the rate of dead pests was calculated.

Blattella germanica = test: Test Example 3: filter paper/sucrose bait test against German cockroach imagoes; settings: Blattella germanica, 144 h, read-out: rate of dead pests
Procedure: as §1, with “Two male Blattella germanica” for “Ten female Musca domestica”, “6 days,” for “24 hours,”, “Blattella germanica” for “Musca domestica”

Culex pipiens pallens = test: Test Example 4: mosquito larvae test in treated water; settings: 24 h, read-out: rate of dead pests
Procedure: 0.7 ml of above test solution was added to 100 ml of ion exchanged water (active ingredient concentration: 3.5 ppm). Twenty last-instar larvae of Culex pipiens pallens were set free in the solution. After one day, the number of surviving and dead Culex pipiens pallens was examined and the rate of dead pests was calculated.

[1] = 500 ppm test solution, 0.7 ml on filter paper with 30 mg sucrose, ten female imagoes, after 24 hours
[2] = 500 ppm test solution, 0.7 ml on filter paper with 30 mg sucrose, two male imagoes, after 6 days
[3] = active ingredient concentration 3.5 ppm in water, twenty last-instar larvae, after one day

| SMILES | pest or weed control at 500 ppm (Musca domestica; [1]) | pest or weed control at 500 ppm (Blattella germanica; [2]) | pest or weed control at 3.5 ppm (Culex pipiens pallens; [3]) | pest or weed control at 500 ppm (Musca domestica; 24 h) | pest or weed control at 500 ppm (Blattella germanica) | pest or weed control at 3.5 ppm (Culex pipiens pallens) |
| --- | --- | --- | --- | --- | --- | --- |
| COC(=O)C(Cl)(CCC(F)(F)C(F)(F)F)S(=O)(=O)CCC(F)(F)C(F)(F)F (stereo not drawn) [(88)] | ≥ 70% | 100% | ≥ 90% |  |  |  |
| N#CC(CCCC(F)(F)F)S(=O)(=O)CCC(F)(F)F (stereo not drawn) [(39)] | ≥ 70% | 100% | ≥ 90% |  |  |  |
| CNC(=O)C(C)(CCC(F)(F)C(F)(F)F)S(=O)(=O)CCC(F)(F)F (stereo not drawn) [(35)] | ≥ 70% | 100% | ≥ 90% |  |  |  |
| COC(=O)C(C)(CCC(F)(F)C(F)(F)F)S(=O)(=O)CCC(F)(F)F (stereo not drawn) [(26)] | ≥ 70% | 100% | ≥ 90% |  |  |  |
| CCOC(=O)C(C)(CCC(F)(F)C(F)(F)F)S(=O)(=O)CCC(F)(F)F (stereo not drawn) [(46)] | ≥ 70% | 100% | ≥ 90% |  |  |  |
| COC(=O)C(Cl)(CCC(F)(F)C(F)(F)C(F)(F)C(F)(F)F)S(=O)(=O)CCC(F)(F)F (stereo not drawn) [(86)] |  |  |  | ≥ 70% | 100% | ≥ 90% |
| NC(=O)C(Cl)(CCC(F)(F)C(F)(F)C(F)(F)F)S(=O)(=O)CCC(F)(F)F (stereo not drawn) [(84)] |  |  |  | ≥ 70% | 100% | ≥ 90% |
| CC(C#N)(CC(F)(F)C(F)(F)C(F)(F)F)S(=O)(=O)CCC(F)(F)F (stereo not drawn) [(12)] |  |  |  | ≥ 70% | 100% | ≥ 90% |
| N#CC(CC(F)(F)C(F)(F)F)S(=O)(=O)CCC(F)(F)F (stereo not drawn) [(2)] | ≥ 70% | 100% | ≥ 90% |  |  |  |
| COC(=O)C(Cl)(CCC(F)(F)C(F)(F)F)S(=O)(=O)CCC(F)(F)F (stereo not drawn) [(58)] | ≥ 70% | 100% | ≥ 90% |  |  |  |
| NC(=O)C(Cl)(CCC(F)(F)F)S(=O)(=O)CCC(F)(F)F (stereo not drawn) [(81)] | ≥ 70% | 100% | ≥ 90% |  |  |  |
| COC(=O)C(Cl)(CCCC(F)(F)C(F)(F)F)S(=O)(=O)CCC(F)(F)F (stereo not drawn) [(102)] | ≥ 70% | 100% | ≥ 90% |  |  |  |
| N#CC(CCC(F)(F)C(F)(F)F)S(=O)(=O)CCC(F)(F)C(F)(F)C(F)(F)F (stereo not drawn) [(10)] |  |  |  | ≥ 70% | 100% | ≥ 90% |
| COC(=O)C(C)(CCC(F)(F)C(F)(F)F)SCCC(F)(F)F (stereo not drawn) [(68)] | ≥ 70% | 100% | ≥ 90% |  |  |  |
| CNC(=O)C(CCC(F)(F)C(F)(F)F)S(=O)(=O)CCC(F)(F)F (stereo not drawn) [(32)] | ≥ 70% | 100% | ≥ 90% |  |  |  |
| NC(=O)C(Cl)(CCC(F)(F)C(F)(F)C(F)(F)F)S(=O)(=O)CCC(F)(F)C(F)(F)F (stereo not drawn) [(97)] |  |  |  | ≥ 70% | 100% | ≥ 90% |
| NC(=O)C(F)(CCC(F)(F)C(F)(F)F)S(=O)(=O)CCC(F)(F)C(F)(F)C(F)(F)F (stereo not drawn) [(67)] |  |  |  | ≥ 70% | 100% | ≥ 90% |
| NC(=O)C(Cl)(CCC(F)(F)F)S(=O)(=O)CCC(F)(F)C(F)(F)F (stereo not drawn) [(94)] | ≥ 70% | 100% | ≥ 90% |  |  |  |
| CN(C)C(=O)C(CCC(F)(F)C(F)(F)F)S(=O)(=O)CCC(F)(F)F (stereo not drawn) [(33)] | ≥ 70% | 100% | ≥ 90% |  |  |  |

| SMILES | pest or weed control at 500 ppm (Musca domestica; [1]) | pest or weed control at 500 ppm (Blattella germanica; [2]) | pest or weed control at 3.5 ppm (Culex pipiens pallens; [3]) | pest or weed control at 500 ppm (Musca domestica; 24 h) | pest or weed control at 500 ppm (Blattella germanica) | pest or weed control at 3.5 ppm (Culex pipiens pallens) |
| --- | --- | --- | --- | --- | --- | --- |
| CC(C#N)(CCC(F)(F)C(F)(F)F)SCCC(F)(F)F (stereo not drawn) [(50)] | ≥ 70% | 100% | ≥ 90% |  |  |  |
| NC(=O)C(Cl)(CCC(F)(F)C(F)(F)C(F)(F)C(F)(F)F)S(=O)(=O)CCC(F)(F)F (stereo not drawn) [(87)] |  |  |  | ≥ 70% | 100% | ≥ 90% |
| CCCC(C#N)(CCC(F)(F)C(F)(F)F)S(=O)(=O)CCC(F)(F)F (stereo not drawn) [(16)] | ≥ 70% | 100% | ≥ 90% |  |  |  |
| CC(C#N)(CCC(F)(F)C(F)(F)F)[S+]([O-])CCC(F)(F)F (stereo not drawn) [(57)] | ≥ 70% | 100% | ≥ 90% |  |  |  |
| NC(=O)C(F)(CCC(F)(F)C(F)(F)C(F)(F)F)S(=O)(=O)CCC(F)(F)F (stereo not drawn) [(91)] |  |  |  | ≥ 70% | 100% | ≥ 90% |
| NC(=O)C(Cl)(CCCCC(F)(F)F)S(=O)(=O)CCC(F)(F)F (stereo not drawn) [(100)] | ≥ 70% | 100% | ≥ 90% |  |  |  |
| COC(=O)C(F)(CCC(F)(F)C(F)(F)F)S(=O)(=O)CCC(F)(F)F (stereo not drawn) [(29)] | ≥ 70% | 100% | ≥ 90% |  |  |  |
| N#CC(CCC(F)(F)F)S(=O)(=O)CCC(F)(F)C(F)(F)F (stereo not drawn) [(53)] | ≥ 70% | 100% | ≥ 90% |  |  |  |
| COC(=O)C(Cl)(CCC(F)(F)F)S(=O)(=O)CCC(F)(F)C(F)(F)F (stereo not drawn) [(93)] | ≥ 70% | 100% | ≥ 90% |  |  |  |
| COC(=O)C(Cl)(CCCC(F)(F)F)S(=O)(=O)CCC(F)(F)F (stereo not drawn) [(79)] | ≥ 70% | 100% | ≥ 90% |  |  |  |
| NC(=O)C(Cl)(CCC(F)(F)C(F)(F)F)S(=O)(=O)CCC(F)(F)C(F)(F)F (stereo not drawn) [(89)] | ≥ 70% | 100% | ≥ 90% |  |  |  |
| NC(=O)C(CCC(F)(F)C(F)(F)F)S(=O)(=O)CCC(F)(F)F (stereo not drawn) [(31)] | ≥ 70% | 100% | ≥ 90% |  |  |  |
| CNC(=O)C(F)(CCC(F)(F)C(F)(F)F)S(=O)(=O)CCC(F)(F)F (stereo not drawn) [(69)] | ≥ 70% | 100% | ≥ 90% |  |  |  |
| COC(=O)C(CCC(F)(F)C(F)(F)F)S(=O)(=O)CCC(F)(F)F (stereo not drawn) [(23)] | ≥ 70% | 100% | ≥ 90% |  |  |  |
| CN(C)C(=O)C(F)(CCC(F)(F)C(F)(F)F)S(=O)(=O)CCC(F)(F)F (stereo not drawn) [(74)] | ≥ 70% | 100% | ≥ 90% |  |  |  |
| CC(C#N)(CCCC(F)(F)F)S(=O)(=O)CCC(F)(F)F (stereo not drawn) [(45)] | ≥ 70% | 100% | ≥ 90% |  |  |  |
| NC(=O)C(Cl)(CCCC(F)(F)C(F)(F)F)S(=O)(=O)CCC(F)(F)F (stereo not drawn) [(103)] | ≥ 70% | 100% | ≥ 90% |  |  |  |
| NC(=O)C(Cl)(CCCC(F)(F)F)S(=O)(=O)CCC(F)(F)F (stereo not drawn) [(80)] | ≥ 70% | 100% | ≥ 90% |  |  |  |
| N#CC(CCC(F)(F)C(F)(F)C(F)(F)F)S(=O)(=O)CCC(F)(F)F (stereo not drawn) [(5)] |  |  |  | ≥ 70% | 100% | ≥ 90% |
